Our source for the IC50 values is patent US20090111798A1, “5,6-DIHYDRO-1H-PYRIDIN-2-ONE COMPOUNDS” (priority 2006, published 2009).

The structures appear in SMILES notation. Where a name gives a salt, the structure may show the parent alone.

The test deals with NS5B polymerase (Hepatitis C virus genotype 1b, UniProt P26663). Nature of the test: biochemical. The conditions noted are these: NS5B polymerase inhibition; 20 nM enzyme, 75 min at 28° C. As to the method: Compounds were tested for HCV polymerase inhibition. Assays were performed in a 96-well streptavidin-coated FlashPlate using 20 nM enzyme, 0.5μ Ci of [α-^33P]GTP, 0.6 μM GTP, and 250 nM 5′biotinylated oligo (rG13)/poly rC in 20 mM Tris-HCl, pH 7.5, 5 mM MgCl2, 5 mM dithiothreitol, 0.1 g/L bovine serum albumin, and 100 U/mL RNAse inhibitor. The reaction was stopped by aspiration after 75 min at 28° C. and the plate was washed several times. After washing and drying the plate, incorporated radioactivity was counted using a Microbeta scintillation counter. IC50 values were calculated relative to the uninhibited control and inhibition data were fitted to a 4-parameter IC50 equation.
NS5B polymerase, sequence (P26663 2420-3010): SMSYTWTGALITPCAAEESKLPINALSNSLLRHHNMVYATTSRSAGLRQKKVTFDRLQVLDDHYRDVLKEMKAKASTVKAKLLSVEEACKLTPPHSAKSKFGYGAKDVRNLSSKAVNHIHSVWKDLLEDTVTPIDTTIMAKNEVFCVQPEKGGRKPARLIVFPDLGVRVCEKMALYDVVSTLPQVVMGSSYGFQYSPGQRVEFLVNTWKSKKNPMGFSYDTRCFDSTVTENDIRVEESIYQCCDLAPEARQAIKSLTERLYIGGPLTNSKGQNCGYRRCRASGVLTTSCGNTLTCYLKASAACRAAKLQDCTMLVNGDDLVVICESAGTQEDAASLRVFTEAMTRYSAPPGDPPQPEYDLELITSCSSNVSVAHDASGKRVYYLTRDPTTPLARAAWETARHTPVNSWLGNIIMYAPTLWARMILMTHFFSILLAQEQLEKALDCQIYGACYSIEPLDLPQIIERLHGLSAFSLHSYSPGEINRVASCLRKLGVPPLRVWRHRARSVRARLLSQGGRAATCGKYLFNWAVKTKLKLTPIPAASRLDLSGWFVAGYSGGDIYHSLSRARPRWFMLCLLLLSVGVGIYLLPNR
`CS(=O)(=O)Nc1ccc2c(c1)S(=O)(=O)N=C(C1=C(O)[C@@H]3CCC[C@@H]3N(Cc3ccccc3)C1=O)N2` (relative stereo) [Example 7, cis-N-[3-(1-Benzyl-4-hydroxy-2-oxo-2,4-a,5,6,7,7a-hexahydro-1H-[1]pyrindin-3-yl)-1,1-dioxo-1,4-dihydro-1λ^6-benzo[1,2,4]thiadiazin-7-yl]-methanesulfonamide]: the IC50 – broadly, the point on the concentration scale where inhibition reaches its midpoint – was in the range of 20 to 100 nM. As for `O=C1C(C2=NS(=O)(=O)c3cc(I)ccc3N2)=C(O)C2CCCCC2N1Cc1ccc(F)cc1` (stereo not shown) [Example 50, 1-(4-Fluoro-benzyl)-4-hydroxy-3-(7-iodo-1,1-dioxo-1,4-dihydro-1λ^6-benzo[1,2,4]thiadiazin-3-yl)-4-a,5,6,7,8,8a-hexahydro-1H-quinolin-2-one], the figure is 1000 to 100000 nM; as for `CS(=O)(=O)Nc1ccc2c(c1)S(=O)(=O)N=C(C1=C(O)C3CCCCCC3NC1=O)N2` (stereo not shown) [Example 59, N-[3-(4-Hydroxy-2-oxo-2,4a,5,6,7,8,9,9a-octahydro-1H-cyclohepta[b]pyridin-3-yl)-1,1-dioxo-1,4-dihydro-1λ^6-benzo[1,2,4]thiadiazin-7-yl]-methanesulfonamide], 1000 to 100000 nM. The molecule `CS(=O)(=O)Nc1ccc2c(c1)S(=O)(=O)N=C(C1=C(O)[C@@H]3CCC[C@@H]3N(Cc3ccc(F)c(F)c3)C1=O)N2` [Example 27, (4aR,7aS)—N-{3-[1-(3,4-Difluoro-benzyl)-4-hydroxy-2-oxo-2,4-a,5,6,7,7a-hexahydro-1H-[1]pyrindin-3-yl]-1,1-dioxo-1,4-dihydro-1λ^6-benzo[1,2,4]thiadiazin-7-yl]-methanesulfonamide] had an IC50 of less than 20 nM. With `CS(=O)(=O)Nc1ccc2c(c1)S(=O)(=O)N=C(C1=C(O)[C@@H]3CCCC[C@@H]3N(Cc3ccc(F)cc3)C1=O)N2` [Example 13, (4aR,8aS)—N-{3-[1-(4-Fluoro-benzyl)-4-hydroxy-2-oxo-1,2,4a,5,6,7,8,8a-octahydro-quinolin-3-yl]-1,1-dioxo-1,4-dihydro-1λ^6-benzo[1,2,4]thiadiazin-7-yl}-methanesulfonamide], the IC50 was in the range of 20 to 100 nM.

Molecule `O=C1C(C2=NS(=O)(=O)c3ccccc3N2)=C(O)C2CCCC2N1Cc1ccc(F)cc1` (mixture of isomers) [Example 51] registered an IC50 of 100 to 1000 nM. For `O=C1C(C2=NS(=O)(=O)c3cc(I)ccc3N2)=C(O)C2CCCCCC2N1Cc1ccc(F)cc1` (stereo not shown) [Example 46, 1-(4-Fluoro-benzyl)-4-hydroxy-3-(7-iodo-1,1-dioxo-1,4-dihydro-1λ^6-benzo[1,2,4]thiadiazin-3-yl)-1,4-a,5,6,7,8,9,9a-octahydro-cyclohepta[b]pyridin-2-one], the IC50 lay in the range of 1000 to 100000 nM.

As to `CC(C)(C)CCN1C(=O)C(C2=NS(=O)(=O)c3cc(NS(C)(=O)=O)ccc3N2)=C(O)C2CCCCC21` (stereo not shown) [Example 21, N-{3-[2-(3,3-Dimethylbutyl)-5-hydroxy-3-oxo-2-aza-bicyclo[4.4.0]dec-4-en-4-yl]-1,1-dioxo-1,4-dihydro-1λ^6-benzo[1,2,4]thiadiazin-7-yl}-methanesulfonamide], the concentration for half-maximal inhibition (IC50) was 20 to 100 nM. As for `CS(=O)(=O)Nc1ccc2c(c1)S(=O)(=O)N=C(C1=C(O)C3CCCCCCC3N(Cc3ccc(F)cc3)C1=O)N2` (stereo not shown) [Example 3, N-{3-[1-(4-Fluoro-benzyl)-4-hydroxy-2-oxo-1,2,4a,5,6,7,8,9,10,10a-decahydro-cycloocta[b]pyridin-3-yl]-1,1-dioxo-1,4-dihydro-1λ^6-benzo[1,2,4]thiadiazin-7-yl]-methanesulfonamide], the figure is 100 to 1000 nM.

With `CN(C)CCN1C(=O)C(C2=NS(=O)(=O)c3cc(NS(C)(=O)=O)ccc3N2)=C(O)[C@@H]2CCC[C@@H]21` (relative stereo) [Example 6], the IC50 lay within 1000 to 100000 nM. As for `CN(C)N1C(=O)C(C2=NS(=O)(=O)c3cc(NS(C)(=O)=O)ccc3N2)=C(O)[C@@H]2CCC[C@@H]21` (relative stereo) [Example 38, cis-N-[3-(1-Dimethylamino-4-hydroxy-2-oxo-2,4-a,5,6,7,7a-hexahydro-1H-[1]pyrindin-3-yl)-1,1-dioxo-1,4-dihydro-1λ^6-benzo[1,2,4]thiadiazin-7-yl]-methanesulfonamide hydrochloride], the figure is 1000 to 100000 nM; as for `CS(=O)(=O)Nc1ccc2c(c1)S(=O)(=O)N=C(C1=C(O)C3CCCCC3N(C3CCCCC3)C1=O)N2` (stereo not shown) [Example 49, N-[3-(1-Cyclohexyl-4-hydroxy-2-oxo-1,2,4a,5,6,7,8,8a-octahydro-quinolin-3-yl)-1,1-dioxo-1,4-dihydro-1λ^6-benzo[1,2,4]thiadiazin-7-yl]-methanesulfonamide], 100 to 1000 nM.

Consider `Cc1cccc(CN2C(=O)C(C3=NS(=O)(=O)c4cc(NS(C)(=O)=O)ccc4N3)=C(O)[C@@H]3CCC[C@@H]32)c1` [Example 23, (4aR,7aS)—N-{3-[4-Hydroxy-1-(3-methyl-benzyl)-2-oxo-2,4-a,5,6,7,7a-hexahydro-1H-[1]pyrindin-3-yl]-1,1-dioxo-1,4-dihydro-1λ^6-benzo[1,2,4]thiadiazin-7-yl}-methanesulfonamide], for which the IC50 is less than 20 nM.

`CS(=O)(=O)Nc1ccc2c(c1)S(=O)(=O)N=C(C1=C(O)[C@@H]3CCC[C@@H]3N(Cc3ccc(F)cc3)C1=O)N2` (relative stereo) [Example 1, cis-N-{3-[1-(4-Fluoro-benzyl)-4-hydroxy-2-oxo-2,4-a,5,6,7,7a-hexahydro-1H-[1]pyrindin-3-yl]-1,1-dioxo-1,4-dihydro-1λ^6-benzo[1,2,4]thiadiazin-7-yl}-methanesulfonamide] yielded an IC50 of less than 20 nM. For `CC(C)CCN1C(=O)C(C2=NS(=O)(=O)c3cc(NS(C)(=O)=O)ccc3N2)=C(O)C2CCCCC21` (stereo not shown) [Example 20, N-{3-[2-(3-Methylbutyl)-5-hydroxy-3-oxo-2-aza-bicyclo[4.4.0]dec-4-en-4-yl]-1,1-dioxo-1,4-dihydro-1λ^6-benzo[1,2,4]thiadiazin-7-yl}-methanesulfonamide] the value was 20 to 100 nM; for `CS(=O)(=O)Nc1ccc2c(c1)S(=O)(=O)N=C(C1=C(O)[C@@H]3CCC[C@@H]3N(Cc3ccc(Cl)cc3)C1=O)N2` (relative stereo) [Example 56, cis-N-{3-[1-(4-Chloro-benzyl)-4-hydroxy-2-oxo-2,4a,5,6,7,7a-hexahydro-1H-[1]pyrindin-3-yl]-1,1-dioxo-1,4-dihydro-1λ^6-benzo[1,2,4]thiadiazin-7-yl}-methanesulfonamide], less than 20 nM. `O=C1C(C2=NS(=O)(=O)c3cc(I)ccc3N2)=C(O)[C@@H]2CCC[C@@H]2N1Cc1ccc(F)cc1` [Example 39, (4aR,7aS)-1-(4-Fluoro-benzyl)-4-hydroxy-3-(7-iodo-1,1-dioxo-1,4-dihydro-1λ^6-benzo[1,2,4]thiadiazin-3-yl)-1,4-a,5,6,7,7a-hexahydro-[1]pyrindin-2-one] came in with an IC50 of 1000 to 100000 nM. For `CS(=O)(=O)Nc1ccc2c(c1)S(=O)(=O)N=C(C1=C(O)[C@@H]3CCC[C@@H]3N(CCC3CC3)C1=O)N2` (relative stereo) [Example 19, cis-N-{3-[2-Cyclopropylethyl-5-hydroxy-3-oxo-2-aza-bicyclo[4.3.0]non-4-en-4-yl]-1,1-dioxo-1,4-dihydro-1λ^6-benzo[1,2,4]thiadiazin-7-yl}-methanesulfonamide] the value was 20 to 100 nM; for `O=C1C(C2=NS(=O)(=O)c3cc(NS(=O)(=O)c4ccccc4)ccc3N2)=C(O)[C@@H]2CCC[C@@H]2N1Cc1ccc(F)cc1` [Example 40, (4aR,7aS)—N-{3-[1-(4-Fluoro-benzyl)-4-hydroxy-2-oxo-2,4-a,5,6,7,7a-hexahydro-1H-[1]pyrindin-3-yl]-1,1-dioxo-1,4-dihydro-1λ^6-benzo[1,2,4]thiadiazin-7-yl]-benzenesulfonamide], 20 to 100 nM. For `CN(c1ccc2c(c1)S(=O)(=O)N=C(C1=C(O)C3CCCCCCC3N(CCC(C)(C)C)C1=O)N2)S(C)(=O)=O` (stereo not shown) [Example 36, N-{3-[1-(3,3-Dimethyl-butyl)-4-hydroxy-2-oxo-1,2,4a,5,6,7,8,9,10,10a-decahydro-cycloocta[b]pyridin-3-yl]-1,1-dioxo-1,4-dihydro-1λ^6-benzo[1,2,4]thiadiazin-7-yl]-N-methyl-methanesulfonamide] the value was 1000 to 100000 nM.

`CCN1C(=O)C(C2=NS(=O)(=O)c3cc(NS(C)(=O)=O)ccc3N2)=C(O)[C@@H]2CCC[C@@H]21` (relative stereo) [Example 54, cis-N-[3-(1-Ethyl-4-hydroxy-2-oxo-2,4a,5,6,7,7a-hexahydro-1H-[1]pyrindin-3-yl)-1,1-dioxo-1,4-dihydro-1λ^6-benzo[1,2,4]thiadiazin-7-yl]-methanesulfonamide] came in with an IC50 of 100 to 1000 nM.

`CS(=O)(=O)Nc1ccc2c(c1)S(=O)(=O)N=C(C1=C(O)[C@@H]3CCC[C@@H]3N(NC3CCC3)C1=O)N2` (relative stereo) [Example 41, cis-N-[3-(1-Cyclobutylamino-4-hydroxy-2-oxo-2,4-a,5,6,7,7a-hexahydro-1H-[1]pyrindin-3-yl)-1,1-dioxo-1,4-dihydro-1λ^6-benzo[1,2,4]thiadiazin-7-yl]-methanesulfonamide trifluoroacetic acid salt] showed an IC50 of 20 to 100 nM.
